Measurements published in patent US8158656B2, “2-indolinone derivatives as multi-target protein kinase inhibitors and histone deacetylase inhibitors” (Shenzhen Chipscreen Biosciences Ltd., priority 2008, dated 2012).

Key:
[1] = system: HDAC4/5; assay: MEF2 reporter assay in HeLa cells; format: cell-based, human; conditions: relative to CS055 at 3 μM
Method: (§1) HDAC subtype selectivity inhibition assay of tested compounds was carried out by several reporter gene assays experiments. Briefly, HeLa cells were seeded in 96-well plates the day before transfection to give a confluence of 50-80%. Cells were transfected with one of reporter gene plasmid containing a promoter sequence or response element upstream of a luciferase gene construct using FuGene6 transfection reagent according to the manufacturer's instruction (Roche). The promoters or response elements including p21-promoter, gdf11-promoter, MEF-binding element (MEF2), Nur77-promoter were fused upstream to the luciferase gene reporter construct. For normalizing the transfection efficiency, a GFP expression plasmid was cotransfected. Cells were allowed to express protein for 24 hours followed by addition of individual compounds or the vehicle (DMSO). 24 hours later the cells were harvested, and the luciferase assay and GFP assay were performed using corresponding assay kits according to the manufacturer's instructions (Promega).

[2] = system: PDGFRβ NIH-3T3 cells; assay: PDGF ligand-dependent cell proliferation; format: cell-based; conditions: Mus musculus, NIH3T3; NIH-3T3 expressing human PDGFRβ, PDGF BB 50 ng/ml, 72 hours, MTS
Method: Measurement of in vivo inhibition on receptor ligand-dependent cell proliferation: PDGF dependent cell proliferation:
NIH-3T3 mouse fibroblasts cell line engineered to stably express human PDGFRβ was constructed and used to evaluate PDGF dependent cell proliferation. PDGFRβ NIH-3T3 cells were plated into 96-well plates at 5,000 per well and incubated with serum-free medium for 24 hours. Compounds and PDGF BB (50 ng/ml) were added and incubated for 72 hours in serum-free medium. The effects on proliferation were determined by addition of MTS reagent (Promega) according to the instruction, incubation for 2 hours at 37° C. in CO2 incubator, and record the absorbance at 490 nm using an ELISA plate reader.

[3] = system: HCT-8; assay: Tumor cell proliferation (MTS), HCT-8; format: cell-based; conditions: Homo sapiens, HCT-8, 72 hours
Method: Measurement of in vivo cell proliferation:
Tumor cells were trypsinized and plated into 96-well plates at 3,000 per well and incubated in complete medium with 10% FBS for 24 hours. Compounds were added over a final concentration range of 100 μmol/L to 100 nmol/L in 0.1% DMSO and incubated for 72 hours in complete medium. The effects on proliferation were determined by addition of MTS reagent (Promega) according to the instruction, incubation for 2 hours at 37° C. in CO2 incubator, and record the absorbance at 490 nm using an ELISA plate reader.

[4] = target: T1, HDAC7 (Homo sapiens, UniProt Q8WUI4); assay: Nur77 reporter assay in HeLa cells; format: cell-based; conditions: relative to CS055 at 3 μM
T1 construct: endogenous in cells; host or cells: HeLa
T1 sequence (Q8WUI4 1-952): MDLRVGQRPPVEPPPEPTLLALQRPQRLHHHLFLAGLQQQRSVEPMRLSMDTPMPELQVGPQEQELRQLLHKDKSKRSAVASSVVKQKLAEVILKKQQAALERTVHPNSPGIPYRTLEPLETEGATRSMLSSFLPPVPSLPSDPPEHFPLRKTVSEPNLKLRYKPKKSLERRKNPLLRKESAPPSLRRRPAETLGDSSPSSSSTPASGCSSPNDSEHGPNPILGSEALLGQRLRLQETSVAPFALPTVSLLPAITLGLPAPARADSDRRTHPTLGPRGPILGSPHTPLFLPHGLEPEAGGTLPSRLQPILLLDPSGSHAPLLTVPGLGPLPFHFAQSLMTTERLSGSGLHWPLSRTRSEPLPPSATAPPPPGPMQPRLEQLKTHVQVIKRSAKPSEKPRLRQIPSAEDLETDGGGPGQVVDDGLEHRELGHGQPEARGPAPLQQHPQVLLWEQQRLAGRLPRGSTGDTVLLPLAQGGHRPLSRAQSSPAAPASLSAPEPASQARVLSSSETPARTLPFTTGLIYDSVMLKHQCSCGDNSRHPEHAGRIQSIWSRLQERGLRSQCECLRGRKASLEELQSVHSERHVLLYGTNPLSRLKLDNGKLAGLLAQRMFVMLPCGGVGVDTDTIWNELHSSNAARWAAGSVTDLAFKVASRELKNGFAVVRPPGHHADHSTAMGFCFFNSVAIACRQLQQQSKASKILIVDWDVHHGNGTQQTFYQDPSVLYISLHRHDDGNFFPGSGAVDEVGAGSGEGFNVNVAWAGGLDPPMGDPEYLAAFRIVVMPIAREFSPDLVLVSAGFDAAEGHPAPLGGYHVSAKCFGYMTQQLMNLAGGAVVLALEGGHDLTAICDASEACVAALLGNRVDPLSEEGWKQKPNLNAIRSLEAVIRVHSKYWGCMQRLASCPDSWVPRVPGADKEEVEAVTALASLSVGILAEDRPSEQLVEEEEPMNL
Method: as §1

[5] = system: total HDAC enzyme; assay: Total HDAC enzyme activity, HDAC Fluorimetric Assay (HeLa extract); format: biochemical, human
Method: Measurement of in vitro inhibition of total HDAC enzyme activity:
The in vitro inhibition of total HDAC enzyme was determined by HDAC Fluorimetric Assay/Drug Discovery Kit (BIOMOL) according to manufacture's instruction. • 1. Add Assay buffer, diluted trichostatin A or test inhibitor to appropriate wells of the microtiter plate. Following table lists examples of various assay types and the additions required for each test.
• 2. Add diluted HeLa extract or other HDAC sample to all wells except those that are to be “No Enzyme Controls” (Blank). • 3. Allow diluted Fluor de Lys™ Substrate and the samples in the microtiter plate to equilibrate to assay temperature (25° C.). • 4. Initiate HDAC reactions by adding diluted substrate (25 μl) to each well and mixing thoroughly. • 5. Allow HDAC reactions to proceed for desired length of time and then stop them by addition of Fluor de Lys™ Developer (50 μl). Incubate plate at room temperature (25° C.) for 10-15 min. • 6. Read samples in a microtiter-plate reading fluorimeter capable of excitation at a wavelength in the range 350-380 nm and detection of emitted light in the range 440-460 nm. Measurement of in vivo inhibition of HDAC subtype activity: […]

[6] = system: Class I HDAC; assay: P21 reporter assay in HeLa cells; format: cell-based, human; conditions: relative to CS055 at 3 μM
Method: as §1

Row | GI50 [3] | HDAC7 (Nur77 reporter assay) % Max Resp of CS055 at 3 μM [4] | % inhibition of total HDAC enzyme activity at 30 μM [5] | SMILES | HDAC4/5 (MEF2 reporter assay) % Max Resp of CS055 at 3 μM [1] | GI50 [2] | Class I HDAC (P21 reporter assay) % Max Resp of CS055 at 3 μM [6]
1 | > 60 µM | 13.2% | 6.10% | Cc1[nH]c(/C=N/N=C2\C(=O)Nc3ccc(F)cc32)c(C)c1C(=O)NCCCCNc1ccc(C(=O)Nc2ccccc2N)cn1 [Example 10, N-(2-aminophenyl)-6-(4-(2-(((5-fluoro-2-oxoindolin-3-ylidene)hydrazono)-methyl)-3,5-dimethyl-1H-pyrrole-4-carboxamido)butylamino)nicotinamide] | 12.8% | > 1000 nM | 7.3%
2 | > 60 µM | 3.9% | 6.90% | Cc1[nH]c(/C=N/N=C2\C(=O)Nc3ccc(F)cc32)c(C)c1C(=O)NCCNc1ccc(C(=O)Nc2ccccc2N)cn1 [Example 4, N-(2-aminophenyl)-6-(2-(2-(((5-fluoro-2-oxoindolin-3-ylidene)hydrazono)-methyl)-3,5-dimethyl-1H-pyrrole-4-carboxamido)ethylamino)nicotinamide] | 4.9% | > 1000 nM | 3.3%
3 | > 60 µM | 6.5% | 6.70% | Cc1[nH]c(/C=C2\C(=O)Nc3ccc(F)cc32)c(C)c1C(=O)NCCCNc1ccc(C(=O)Nc2ccc(F)cc2N)cn1 [Example 16, (Z)-N-(2-amino-4-fluorophenyl)-6-(3-(2-((5-fluoro-2-oxoindolin-3-ylidene)-methyl)-3,5-dimethyl-1H-pyrrole-4-carboxamido)propylamino)nicotinamide] | −0.2% | > 1000 nM | 2.5%
